# Assay results from patent publication US20170291875A1, “QUINOLONES AS INHIBITORS OF CLASS IV BROMODOMAIN PROTEINS” (UCL BUSINESS PLC, priority 2014, published 2017).
# pKd: −log10 of the molar value.
# Tests used:
# [1] = target: T1, BRD9 (Homo sapiens, UniProt Q9H8M2); experiment: BROMOscan bromodomain competitive binding assay (DiscoveRx), BRD9; settings: BROMOscan platform, n = 2
# T1 construct: purchased DiscoveRx (BROMOscan platform); host or cells: E. coli host derived from BL21 (T7 phage)
# T1 sequence (Q9H8M2 136-240 limits assumed): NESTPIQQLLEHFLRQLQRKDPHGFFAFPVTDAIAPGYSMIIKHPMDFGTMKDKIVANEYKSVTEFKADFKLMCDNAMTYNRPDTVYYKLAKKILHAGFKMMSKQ
# Procedure: (§1) Compounds were tested using the commercially available BROMOscan™ Platform (DiscoveRx): http://www.discoverx.com/technologies-platforms/competitive-binding-technology/bromoscan-technology-platform/bromoscan-assay-process.
# (§2) Bromodomain assays. T7 phage strains displaying bromodomains were grown in parallel in 24-well blocks in an E. coli host derived from the BL21 strain. E. coli were grown to log-phase and infected with T7 phage from a frozen stock (multiplicity of infection=0.4) and incubated with shaking at 32° C. until lysis (90-150 minutes). The lysates were centrifuged (5,000×g) and filtered (0.2 μm) to remove cell debris. […] The liganded beads were blocked with excess biotin and washed with blocking buffer (SeaBlock (Pierce), 1% BSA, 0.05% Tween 20, 1 mM DTT) to remove unbound ligand and to reduce non-specific phage binding. […] Test compounds were prepared as 1000× stocks in 100% DMSO and subsequently diluted 1:10 in monoethylene glycol (MEG) to create stocks at 100× the screening concentration (resulting stock solution is 10% DMSO/90% MEG). The compounds were then diluted directly into the assays such that the final concentration of DMSO and MEG were 0.1% and 0.9%, respectively. All reactions were performed in polystyrene 96-well plates in a final volume of 0.135 ml. […] The bromodomain concentration in the eluates was measured by qPCR.
# (§3) An 11-point 3-fold serial dilution of each test compound was prepared in 100% DMSO at 1000× final test concentration. This serial is then diluted to 100× in ethylene glycol and subsequently diluted to 1× in the assay (final DMSO concentration=0.1%, Ethylene glycol concentration=0.9%). Most Kds were determined using a compound top concentration=10,000 nM.
# (§4) Binding constants (Kds) were calculated with a standard dose-response curve using the Hill equation: […]
# (§5) The Hill Slope was set to −1. Curves were fitted using a non-linear least square fit with the Levenberg-Marquardt algorithm.
# (§6) BROMOscan™ uses the same assay technology as KINOMEscan™. For a more detailed description of this assay technology, see Fabian et al.12
# [2] = target: T2, BRPF1B (Homo sapiens, UniProt P55201); experiment: BROMOscan bromodomain competitive binding assay (DiscoveRx), BRPF1B; settings: BROMOscan platform, n = 2 unless cell says n = 4
# T2 construct: purchased DiscoveRx (BROMOscan platform); host or cells: E. coli host derived from BL21 (T7 phage)
# T2 sequence (P55201 628-732 limits assumed): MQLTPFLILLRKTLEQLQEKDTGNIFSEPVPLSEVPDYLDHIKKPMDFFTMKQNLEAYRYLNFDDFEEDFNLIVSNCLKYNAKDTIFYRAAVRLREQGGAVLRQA
# Procedure: as §1, §2, §3, §4, §5, §6
# [3] = target: T3, BRD7 (Homo sapiens, UniProt Q9NPI1); experiment: BROMOscan bromodomain competitive binding assay (DiscoveRx), BRD7; settings: BROMOscan platform, n = 2
# T3 construct: purchased DiscoveRx (BROMOscan platform); host or cells: E. coli host derived from BL21 (T7 phage)
# T3 sequence (Q9NPI1 131-235 limits assumed): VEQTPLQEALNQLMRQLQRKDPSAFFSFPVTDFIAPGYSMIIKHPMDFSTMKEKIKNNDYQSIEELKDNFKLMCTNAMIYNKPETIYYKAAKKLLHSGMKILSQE
# Procedure: as §1
# Bromodomain assays. T7 phage strains displaying bromodomains were grown in parallel in 24-well blocks in an E. coli host derived from the BL21 strain. E. coli were grown to log-phase and infected with T7 phage from a frozen stock (multiplicity of infection=0.4) and incubated with shaking at 32° C. until lysis (90-150 minutes). The lysates were centrifuged (5,000×g) and filtered (0.2 μm) to remove cell debris. […] The liganded beads were blocked with excess biotin and washed with blocking buffer (SeaBlock (Pierce), 1% BSA, 0.05% Tween 20, 1 mM DTT) to remove unbound ligand and to reduce non-specific phage binding. […] The bromodomain concentration in the eluates was measured by qPCR.
# An 11-point 3-fold serial dilution of each test compound was prepared in 100% DMSO at 1000× final test concentration. […] Most Kds were determined using a compound top concentration=10,000 nM.
# as §4
# [4] = target: T4, BRPF3 (Homo sapiens, UniProt Q9ULD4); experiment: BROMOscan bromodomain competitive binding assay (DiscoveRx), BRPF3; settings: BROMOscan platform, n = 2
# T4 construct: purchased DiscoveRx (BROMOscan platform); host or cells: E. coli host derived from BL21 (T7 phage)
# T4 sequence (Q9ULD4 589-693 limits assumed): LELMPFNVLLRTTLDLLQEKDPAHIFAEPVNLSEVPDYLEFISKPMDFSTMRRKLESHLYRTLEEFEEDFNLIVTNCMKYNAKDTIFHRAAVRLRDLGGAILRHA
# Procedure: as §1, §2, §3, §4, §5, §6
# [5] = target: T5, BRD1 (Homo sapiens, UniProt O95696); experiment: BROMOscan bromodomain competitive binding assay (DiscoveRx), BRD1; settings: BROMOscan platform, n = 2
# T5 construct: purchased DiscoveRx (BROMOscan platform); host or cells: E. coli host derived from BL21 (T7 phage)
# T5 sequence (O95696 562-666 limits assumed): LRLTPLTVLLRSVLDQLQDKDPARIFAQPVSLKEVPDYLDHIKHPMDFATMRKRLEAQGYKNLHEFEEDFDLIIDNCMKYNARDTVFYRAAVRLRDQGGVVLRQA
# Procedure: as §1, §2, §3, §4, §5, §6
Structure (SMILES),pKd [1],pKd [2],pKd [3],pKd [4],pKd [5]
"Cc1cc2cc(NS(=O)(=O)c3ccc(C#N)cc3)ccc2n(C)c1=O [Compound 19, 4-cyano-N-(1,3-dimethyl-2-oxo-1,2-dihydroquinolin-6-yl)benzenesulfonamide]",6.51,8.10,7.09,6.59,7.32
"COc1cc2c(cc1NS(=O)(=O)c1ccc(C#N)cc1OC)cc(C)c(=O)n2C [Compound 27, 4-cyano-2-methoxy-N-(7-methoxy-1,3-dimethyl-2-oxo-1,2-dihydroquinolin-6-yl)benzenesulfonamide]",6.77,7.92,,6.72,7.10
"COc1cc2c(cc1NS(=O)(=O)c1ccc(C#N)cc1)c(C)cc(=O)n2C [Compound 33, 4-cyano-N-(7-methoxy-1,4-dimethyl-2-oxo-1,2-dihydroquinolin-6-yl)benzenesulfonamide]",6.05,7.22,4.68,5.03,5.74
